# Test results: ChEMBL document CHEMBL1154370, “Palmyramide A, a cyclic depsipeptide from a Palmyra Atoll collection of the marine cyanobacterium Lyngbya majuscula” (J Nat Prod, 2010)
# Assays:
# NCI-H460 = assay: Cytotoxicity against human H460 cells after 48 hrs by MTT assay; assay type: functional, cell-based; settings: NCI-H460, 48 h
# [1] = Inhibition of voltage-gated sodium channel in mouse Neuro2a cells assessed as suppression of quabain and veratridine-induced sodium overload cytotoxicity after 24 hrs by MTT assay; assay type: cell-based; settings: N2a
compound,measurement,setting,value
CCC[C@H]1OC(=O)[C@H](C(C)C)NC(=O)[C@@H](C(C)C)N(C)C(=O)[C@@H]2CCCN2C(=O)[C@H](Cc2ccccc2)OC(=O)[C@H](C)OC(=O)C1(C)C [PALMYRAMIDE A],IC50,NCI-H460,39.7 µM
same,IC50,[1],17.2 µM
